# ChEMBL document CHEMBL1201862, “PubChem BioAssay data set” (2004)
#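 Method: 48-hour compound exposure of cells in 96-well plates, five concentrations, linear interpolation of endpoints. GI50: concentration for 50% inhibition of growth.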 Calls of active or inactive are those of the source. No stated cut-off is given here; in the data, active = GI50 up to about 1.1 µM and inactive = higher.
# Tests used:
# Experiment in all cases: DTP human tumour cell line panel, 48 h
# [1] = test system: 786-0
# [2] = test system: A498
# [3] = test system: A549
# [4] = test system: ACHN
# [5] = test system: BT-549
# [6] = test system: CAKI-1
# [7] = test system: CCRF-CEM
# [8] = test system: COLO 205
# [9] = test system: DU-145
# [10] = test system: EKVX
# [11] = test system: HCT-116
# [12] = test system: HCT-15
# [13] = test system: HL-60
# [14] = test system: HOP-62
# [15] = test system: HOP-92
# [16] = test system: HT-29
# [17] = test system: Hs-578T
# [18] = test system: IGROV-1
# [19] = test system: K562
# [20] = test system: KM12
# [21] = test system: LOX IMVI
# [22] = test system: M14
# [23] = test system: MCF7
# [24] = test system: MDA-MB-231
# [25] = test system: MDA-MB-435
# [26] = test system: MDA-N
# [27] = test system: MOLT-4
# [28] = test system: Malme-3M
# [29] = test system: NCI-H226
# [30] = test system: NCI-H23
# [31] = test system: NCI-H460
# [32] = test system: NCI-H522
# [33] = test system: NCI/ADR-RES
# [34] = test system: OVCAR-3
# [35] = test system: OVCAR-4
# [36] = test system: OVCAR-5
# [37] = test system: OVCAR-8
# [38] = test system: PC-3
# [39] = test system: RPMI-8226
# [40] = test system: RXF 393
# [41] = test system: SF-268
# [42] = test system: SF-295
# [43] = test system: SF-539
# [44] = test system: SK-MEL-28
# [45] = test system: SK-MEL-2
# [46] = test system: SK-MEL-5
# [47] = test system: SK-OV-3
# [48] = test system: SN12C
# [49] = test system: SNB-19
# [50] = test system: SNB-75
# [51] = test system: SR
# [52] = test system: SW-620
# [53] = test system: T47D
# [54] = test system: TK-10
# [55] = test system: U-251
# [56] = test system: UACC-257
# [57] = test system: UACC-62
# [58] = test system: UO-31
# [59] = test system: HCC 2998
smiles,measurement,setting,value
CCNC(C)(C)C(SS)c1ccc(Br)cc1 (configuration not stated),GI50,[1],21.3 µM (inactive)
same,GI50,[2],> 100 µM (inactive)
same,GI50,[3],> 100 µM (inactive)
same,GI50,[4],> 100 µM (inactive)
same,GI50,[5],> 100 µM (inactive)
same,GI50,[6],78 µM (inactive)
same,GI50,[7],20.3 µM (inactive)
same,GI50,[8],62.1 µM (inactive)
same,GI50,[9],> 100 µM (inactive)
same,GI50,[10],> 100 µM (inactive)
same,GI50,[11],29.6 µM (inactive)
same,GI50,[12],> 100 µM
same,GI50,[13],21.9 µM (inactive)
same,GI50,[14],63.1 µM (inactive)
same,GI50,[15],> 100 µM (inactive)
same,GI50,[16],25.8 µM (inactive)
same,GI50,[17],> 100 µM (inactive)
same,GI50,[18],> 100 µM (inactive)
same,GI50,[19],36.1 µM (inactive)
same,GI50,[20],> 100 µM (inactive)
same,GI50,[21],26.1 µM (inactive)
same,GI50,[22],59.2 µM (inactive)
same,GI50,[23],39.4 µM (inactive)
same,GI50,[24],> 100 µM (inactive)
same,GI50,[25],34.8 µM (inactive)
same,GI50,[26],45.6 µM (inactive)
same,GI50,[27],21.1 µM (inactive)
same,GI50,[28],> 100 µM (inactive)
same,GI50,[29],> 100 µM (inactive)
same,GI50,[30],> 100 µM (inactive)
same,GI50,[31],31.1 µM (inactive)
same,GI50,[32],18.4 µM (inactive)
same,GI50,[33],> 100 µM (inactive)
same,GI50,[34],46.6 µM (inactive)
same,GI50,[35],44.5 µM (inactive)
same,GI50,[36],> 100 µM (inactive)
same,GI50,[37],> 100 µM (inactive)
same,GI50,[38],60.5 µM (inactive)
same,GI50,[39],27.8 µM (inactive)
same,GI50,[40],46 µM (inactive)
same,GI50,[41],60.8 µM (inactive)
same,GI50,[42],> 100 µM (inactive)
same,GI50,[43],38 µM (inactive)
same,GI50,[44],> 100 µM (inactive)
same,GI50,[45],> 100 µM (inactive)
same,GI50,[46],91.4 µM (inactive)
same,GI50,[47],> 100 µM (inactive)
same,GI50,[48],32.6 µM (inactive)
same,GI50,[49],> 100 µM (inactive)
same,GI50,[50],> 100 µM (inactive)
same,GI50,[51],30.4 µM (inactive)
same,GI50,[52],22.4 µM (inactive)
same,GI50,[53],24 µM (inactive)
same,GI50,[54],53.3 µM (inactive)
same,GI50,[55],44.3 µM (inactive)
same,GI50,[56],28.3 µM (inactive)
same,GI50,[57],88.9 µM (inactive)
same,GI50,[58],79.1 µM (inactive)
CCN(CC)C(=S)Oc1cc2oc(=O)cc(C)c2cc1Cl,GI50,[1],> 100 µM (inactive)
same,GI50,[2],> 100 µM (inactive)
same,GI50,[3],> 100 µM (inactive)
same,GI50,[4],> 100 µM (inactive)
same,GI50,[5],> 100 µM (inactive)
same,GI50,[6],> 100 µM (inactive)
same,GI50,[7],> 100 µM (inactive)
same,GI50,[8],> 100 µM (inactive)
same,GI50,[9],> 100 µM (inactive)
same,GI50,[10],> 100 µM (inactive)
same,GI50,[59],52.7 µM (inactive)
same,GI50,[11],> 100 µM (inactive)
same,GI50,[12],> 100 µM
same,GI50,[13],> 100 µM (inactive)
same,GI50,[14],54 µM (inactive)
same,GI50,[15],56 µM (inactive)
same,GI50,[16],> 100 µM (inactive)
same,GI50,[17],57.7 µM (inactive)
same,GI50,[18],> 100 µM (inactive)
same,GI50,[19],> 100 µM (inactive)
same,GI50,[20],> 100 µM (inactive)
same,GI50,[21],68.7 µM (inactive)
same,GI50,[22],> 100 µM (inactive)
same,GI50,[23],23.9 µM (inactive)
same,GI50,[24],> 100 µM (inactive)
same,GI50,[25],> 100 µM (inactive)
same,GI50,[26],> 100 µM (inactive)
same,GI50,[27],> 100 µM (inactive)
same,GI50,[29],> 100 µM (inactive)
same,GI50,[30],> 100 µM (inactive)
same,GI50,[31],> 100 µM (inactive)
same,GI50,[32],80.4 µM (inactive)
same,GI50,[33],> 100 µM (inactive)
same,GI50,[34],> 100 µM (inactive)
same,GI50,[35],> 100 µM (inactive)
same,GI50,[36],> 100 µM (inactive)
same,GI50,[37],> 100 µM (inactive)
same,GI50,[38],> 100 µM (inactive)
same,GI50,[39],> 100 µM (inactive)
same,GI50,[40],25.5 µM (inactive)
same,GI50,[41],36.1 µM (inactive)
same,GI50,[42],66.7 µM (inactive)
same,GI50,[43],> 100 µM (inactive)
same,GI50,[44],> 100 µM (inactive)
same,GI50,[45],8.51 µM (inactive)
same,GI50,[46],> 100 µM (inactive)
same,GI50,[48],> 100 µM (inactive)
same,GI50,[49],66.5 µM (inactive)
same,GI50,[51],> 100 µM (inactive)
same,GI50,[52],> 100 µM (inactive)
same,GI50,[53],54 µM (inactive)
same,GI50,[54],> 100 µM (inactive)
same,GI50,[55],42.2 µM (inactive)
same,GI50,[56],> 100 µM (inactive)
same,GI50,[57],26.9 µM (inactive)
same,GI50,[58],> 100 µM (inactive)
NS(=O)(=O)c1cc(Cl)c(NC(=S)NC(=O)Nc2ccc(Cl)c(Cl)c2)c(Cl)c1,GI50,[1],39 µM (inactive)
same,GI50,[2],26.7 µM (inactive)
same,GI50,[3],30.5 µM (inactive)
same,GI50,[4],34.1 µM (inactive)
same,GI50,[5],55.2 µM (inactive)
same,GI50,[6],76.4 µM (inactive)
same,GI50,[7],6.97 µM (inactive)
same,GI50,[8],18 µM (inactive)
same,GI50,[9],67 µM (inactive)
same,GI50,[10],28.4 µM (inactive)
same,GI50,[59],59.2 µM (inactive)
same,GI50,[11],35.7 µM (inactive)
same,GI50,[12],40.9 µM
same,GI50,[13],21.8 µM (inactive)
same,GI50,[14],> 100 µM (inactive)
same,GI50,[15],55.7 µM (inactive)
same,GI50,[16],46.8 µM (inactive)
same,GI50,[17],> 100 µM (inactive)
same,GI50,[18],81.1 µM (inactive)
same,GI50,[19],35.2 µM (inactive)
same,GI50,[20],34.7 µM (inactive)
same,GI50,[21],40.3 µM (inactive)
same,GI50,[22],27.5 µM (inactive)
same,GI50,[23],20.4 µM (inactive)
same,GI50,[24],50.1 µM (inactive)
same,GI50,[25],32.7 µM (inactive)
same,GI50,[26],33.6 µM (inactive)
same,GI50,[27],30.5 µM (inactive)
same,GI50,[28],68.1 µM (inactive)
same,GI50,[29],30.8 µM (inactive)
same,GI50,[30],31.6 µM (inactive)
same,GI50,[31],30.2 µM (inactive)
same,GI50,[32],26.1 µM (inactive)
same,GI50,[33],37.4 µM (inactive)
same,GI50,[34],39.6 µM (inactive)
same,GI50,[35],47.4 µM (inactive)
same,GI50,[36],80.5 µM (inactive)
same,GI50,[37],47.6 µM (inactive)
same,GI50,[38],33.9 µM (inactive)
same,GI50,[40],41.3 µM (inactive)
same,GI50,[41],56.8 µM (inactive)
same,GI50,[42],37.8 µM (inactive)
same,GI50,[43],28.6 µM (inactive)
same,GI50,[44],84.3 µM (inactive)
same,GI50,[45],25.5 µM (inactive)
same,GI50,[46],18.3 µM (inactive)
same,GI50,[47],77.4 µM (inactive)
same,GI50,[48],36.8 µM (inactive)
same,GI50,[49],42.9 µM (inactive)
same,GI50,[50],59.8 µM (inactive)
same,GI50,[51],36.2 µM (inactive)
same,GI50,[52],58.1 µM (inactive)
same,GI50,[53],23.8 µM (inactive)
same,GI50,[54],47.4 µM (inactive)
same,GI50,[55],37.2 µM (inactive)
same,GI50,[56],29.9 µM (inactive)
same,GI50,[57],23.1 µM (inactive)
same,GI50,[58],44.1 µM (inactive)
